The values that follow come from patent US4349546A, “D-Allose derivative and preparation method therefor” (Wakamoto Pharmaceutical Co., Ltd., priority 1980, dated 1982).

The subject of data set [1] is early stage encephalophyma, melanoma, lymphoma. As to conditions: background statement; cited from earlier work.
Data set [2] relates to Peripheral leukocyte count. The data set is described as follows: Effects on peripheral leukocyte count (Test Example 6). The format is in vivo, DDY mice. An excerpt: Comparison of effects of CNUA and Me-CCNU* on peripheral leukocyte count:
Six-week old DDY mice each weighing 22±1 g; one group comprising 5 male mice.
CNUA and Me-CCNU were given intraperitoneally on the first day. The, blood was drawn from a tail vein at time intervals to determine the leukocyte count. The samples were used in the form of a solution in an isotonic sodium chloride solution.

The test system of a further data set is tumor. The note with it: background statement; cited from earlier work.

Regarding `O=NN(CCCl)C(=O)NCCCl` [BCNU, 1,3-bis-(2-chloroethyl)-1-nitrosourea], in data set [1], the effectiveness against tumors entry is recorded as “effective against early stage encephalophyma, melanoma, lymphoma”.
As to `O=NN(CCCl)C(=O)NC1CCCCC1` [CCNU, 1-(2-chloroethyl)-3-cyclohexyl-1-nitrosourea], in data set [1], the effectiveness against tumors result is “effective against early stage encephalophyma, melanoma, lymphoma”.
Consider `C[C@H]1CC[C@H](NC(=O)N(CCCl)N=O)CC1` [Me-CCNU, 1-(2-chloroethyl)-3-(trans-4-methylcyclohexyl)-1-nitrosourea, reference compound], for which the “Peripheral leukocyte count after the administration” value in data set [2] (20 mg/kg ip, 2 day) turned out to be 55.0 % based on the control; in data set [2] (20 mg/kg ip, 4 day) it was 53.3 % based on the control; in data set [2] (20 mg/kg ip, 7 day), 50.2 % based on the control; in data set [2] (20 mg/kg ip, 10 day), 59.5 % based on the control; in data set [2] (20 mg/kg ip, 14 day), 145 % based on the control; in data set [2] (40 mg/kg ip, 2 day), 56.0 % based on the control. In addition, the “Peripheral leukocyte count after the administration” value in data set [2] (40 mg/kg ip, 4 day) is given as 36.5 % based on the control; in data set [2] (40 mg/kg ip, 7 day), 34.0 % based on the control; in data set [2] (40 mg/kg ip, 10 day), 40.7 % based on the control; in data set [2] (40 mg/kg ip, 14 day), 78.1 % based on the control. In addition, in data set [1], the effectiveness against tumors result is listed as “effective against early stage encephalophyma, melanoma, lymphoma”.
In the case of `O=NN(CCCl)C(=O)N[C@H]1C(O)O[C@H](CO)[C@@H](O)[C@@H]1O` (stereo partly drawn) [chlorozotocin], the antitumor effects entry with tumor is given as “exhibit antitumor effects”.
On to `CN(N=O)C(=O)N[C@H]1C(O)O[C@H](CO)[C@@H](O)[C@@H]1O` (stereo partly drawn) [streptozotocin], for which the antitumor effects result in the data set on tumor was “exhibit antitumor effects”.
